“Also recorded” adds a separate entry of the source. Where two headings read alike, the source gives them in different places. Each block holds one compound with its values, some of them ahead of it.
Experiments:
[1] = cited from earlier work
[2] = cited from earlier work; remark: listed apart in the source
[3] = in vitro; conditions: human, plasma
[4] = Enzymolysis kinetics experiment of compounds in plasma; conditions: for half-life at 97.6 µM: human, plasma; for Content of the compound %: 37° C.
[5] = human, 97.6 µM
[6] = By-product toxicity test (metabolic byproducts in the human body); conditions: for Metabolic by-products in human body: by the metabolic pathways of the compounds in the human body; for Toxicity: toxicity of the metabolic by-products in human body
[7] = High temperature stability study of compounds (60° C.); type: physicochemical; conditions: in the dark; for Ketorolac (%): related substance
Protocol: Test protocol: the compounds prepared in the present disclosure were placed in a colorless and transparent vial, placed in the dark at a high temperature (60° C.), and were sampled for day 0, day 5 and day 10, respectively, and the purity of the compounds and the change of the related substance (ketorolac) were determined.

[8] = oral administration and intramuscular injection

half-life at 97.6 µM [3]: 40.8 min
degradation / metabolic rate in human plasma (in words) ([4]; human plasma, up to 120 min): could be metabolized faster
SMILES: CC(=O)OC(C)OC(=O)C(C)c1ccc(-c2ccccc2)c(F)c1 (stereo not drawn) [FPA, flurbiprofen axetil, reference compound]

Content of ketorolac % ([5]; 0 min): 1.050 ± 0.079%
Content of the compound % ([5]; 0 min): 98.950 ± 3.765%
Content of ketorolac % ([5]; 15 min): 8.860 ± 0.426%
Content of the compound % ([5]; 15 min): 88.103 ± 2.289%
Content of ketorolac % ([5]; 30 min): 20.993 ± 0.561%
Content of the compound % ([5]; 30 min): 72.813 ± 2.707%
Content of ketorolac % ([5]; 60 min): 34.590 ± 1.381%
Content of the compound % ([5]; 60 min): 47.510 ± 1.739%
Content of ketorolac % ([5]; 120 min): 59.790 ± 2.019%
Content of the compound % ([5]; 120 min): 12.573 ± 0.260%
Total main peak purity (%) ([7]; Day 0): 95.58%
Total main peak purity (%) ([7]; Day 5): 95.21%
Total main peak purity (%) ([7]; Day 10): 94.82%
Ketorolac (%) ([7]; Day 0): 0.03%
Ketorolac (%) ([7]; Day 5): 0.04%
Ketorolac (%) ([7]; Day 10): 0.05%
half-life at 97.6 µM [3]: 38.6 min
SMILES: CC(C)OC(=O)OC(C)OC(=O)C1CCn2c(C(=O)c3ccccc3)ccc21 (stereo not drawn) [N2]
Metabolic by-products in human body [6]: Acetaldehyde and isopropyl alcohol
Toxicity [6]: low toxicity of byproducts; also recorded: relatively low

Content of ketorolac % ([5]; 0 min): 0%
Content of the compound % ([5]; 0 min): 100 ± 1.782%
Content of ketorolac % ([5]; 15 min): 19.140 ± 1.467%
Content of the compound % ([5]; 15 min): 69.713 ± 6.985%
Content of ketorolac % ([5]; 30 min): 36.277 ± 3.301%
Content of the compound % ([5]; 30 min): 42.467 ± 2.983%
Content of ketorolac % ([5]; 60 min): 53.130 ± 2.171%
Content of the compound % ([5]; 60 min): 8.777 ± 0.560%
Content of ketorolac % ([5]; 120 min): 65.997 ± 3.446%
Content of the compound % ([5]; 120 min): 0%
Total main peak purity (%) ([7]; Day 0): 93.15%
Total main peak purity (%) ([7]; Day 5): 93.30%
Total main peak purity (%) ([7]; Day 10): 92.34%
Ketorolac (%) ([7]; Day 0): 0.18%
Ketorolac (%) ([7]; Day 5): 0.42%
Ketorolac (%) ([7]; Day 10): 0.96%
half-life at 97.6 µM [3]: 16.9 min
SMILES: CCC(=O)OC(CC)OC(=O)C1CCn2c(C(=O)c3ccccc3)ccc21 (stereo not drawn) [N8]
Toxicity [6]: low toxicity of byproducts; also recorded: relatively low

Total main peak purity (%) ([7]; Day 0): 96.36%
Total main peak purity (%) ([7]; Day 5): 94.28%
Total main peak purity (%) ([7]; Day 10): 94.41%
Ketorolac (%) ([7]; Day 0): 0.05%
Ketorolac (%) ([7]; Day 5): 0.23%
Ketorolac (%) ([7]; Day 10): 0.37%
SMILES: CC(OC(=O)OC1CCCCC1)OC(=O)C1CCn2c(C(=O)c3ccccc3)ccc21 (stereo not drawn) [N10]
Metabolic by-products in human body [6]: Acetaldehyde and cyclohexanol
Toxicity [6]: relatively low toxicity of byproducts

Content of ketorolac % ([5]; 0 min): 0%
Content of the compound % ([5]; 0 min): 99.700 ± 2.928%
Content of ketorolac % ([5]; 15 min): 0%
Content of the compound % ([5]; 15 min): 99.813 ± 4.881%
Content of ketorolac % ([5]; 30 min): 0%
Content of the compound % ([5]; 30 min): 89.807 ± 2.538%
Content of ketorolac % ([5]; 60 min): 2.270 ± 0.328%
Content of the compound % ([5]; 60 min): 83.490 ± 9.087%
half-life at 97.6 µM [3]: 347 min
SMILES: CC(C)OC(=O)C1CCn2c(C(=O)c3ccccc3)ccc21 (stereo not drawn) [N11, reference compound]

Content of ketorolac % ([5]; 0 min): 2.033 ± 0.342%
Content of the compound % ([5]; 0 min): 97.967 ± 6.878%
Content of ketorolac % ([5]; 15 min): 34.203 ± 3.165%
Content of the compound % ([5]; 15 min): 56.277 ± 3.890%
Content of ketorolac % ([5]; 30 min): 53.297 ± 1.296%
Content of the compound % ([5]; 30 min): 25.590 ± 1.131%
Content of ketorolac % ([5]; 60 min): 76.623 ± 10.483%
Content of the compound % ([5]; 60 min): 5.997 ± 0.976%
Content of ketorolac % ([5]; 120 min): 87.973 ± 4.045%
Content of the compound % ([5]; 120 min): 0%
Total main peak purity (%) ([7]; Day 0): 93.84%
Total main peak purity (%) ([7]; Day 5): 93.59%
Total main peak purity (%) ([7]; Day 10): 93.36%
Ketorolac (%) ([7]; Day 0): 0.03%
Ketorolac (%) ([7]; Day 5): 0.07%
Ketorolac (%) ([7]; Day 10): 0.07%
half-life at 97.6 µM [3]: 14.8 min
SMILES: CCOC(=O)OC(C)OC(=O)C1CCn2c(C(=O)c3ccccc3)ccc21 (stereo not drawn) [N12]
Metabolic by-products in human body [6]: Acetaldehyde and acetic acid
Toxicity [6]: low toxicity of byproducts; also recorded: relatively low

Content of ketorolac % ([5]; 1 min): 0%
Content of the compound % ([5]; 1 min): 100%
Content of ketorolac % ([5]; 15 min): 0%
Content of the compound % ([5]; 15 min): 100%
Content of ketorolac % ([5]; 30 min): 3.89 ± 0.61%
Content of the compound % ([5]; 30 min): 95.48 ± 1.56%
Content of ketorolac % ([5]; 60 min): 8.60 ± 0.33%
Content of the compound % ([5]; 60 min): 89.20 ± 1.67%
Content of ketorolac % ([5]; 120 min): 24.34 ± 0.90%
Content of the compound % ([5]; 120 min): 68.99 ± 1.45%
half-life at 97.6 µM [3]: 177 min
SMILES: CCCCCCCCOC(=O)OC(C)OC(=O)C1CCn2c(C(=O)c3ccccc3)ccc21 (stereo not drawn) [N26]
Toxicity [6]: n-octanol is more toxic

Further lines, the compound ahead of its results:

SMILES: O=C(c1ccccc1)c1ccc2n1CCC2C(=O)O (racemic) [Ketorolac, (±)-5-benzoyl-2,3-dihydro-1H-pyrrolizine-1-carboxylic acid]
elimination half-life ([1]; elderly patients): 360 to 420 min
binding rate to plasma protein ([1]; in vivo): more than 99%
distribution volume ([1]; in vivo): 0.1 to 0.3 L/kg
elimination half-life ([1]; in vivo): 240 to 360 min
original drug and metabolites excreted with the urine ([1]; in vivo): about 90%
total clearance rate ([1]; in vivo): 0.03 L/h/kg
effective treatment plasma concentration [1, 8]: 0.3 to 5 µg/mL
peak concentration time of the plasma concentration [1, 8]: 20 to 60 min
elimination half-life ([1]; renal insufficiency patients): 540 to 600 min
analgesic activity relative to aspirin ([2]; times that of aspirin): 800 times
analgesic activity relative to indomethacin ([2]; times that of indomethacin): 60 times
analgesic activity relative to morphine ([2]; times that of morphine): 0.4 times

SMILES: CC(OC(=O)C(C)C)OC(=O)C1CCn2c(C(=O)c3ccccc3)ccc21 (stereo not drawn) [N6]
Metabolic by-products in human body [6]: Acetaldehyde and isobutyric acid
Total main peak purity (%) ([7]; Day 0): 91.56%
Total main peak purity (%) ([7]; Day 5): 90.94%
Total main peak purity (%) ([7]; Day 10): 90.22%
Ketorolac (%) ([7]; Day 0): 0.14%
Ketorolac (%) ([7]; Day 5): 0.13%
Ketorolac (%) ([7]; Day 10): 0.17%

SMILES: CC(OC(=O)C1CCn2c(C(=O)c3ccccc3)ccc21)OC(=O)C(C)(C)C (stereo not drawn) [N7]
Metabolic by-products in human body [6]: Acetaldehyde and pivalic acid
Toxicity [6]: Pivalic acid is more toxic
Total main peak purity (%) ([7]; Day 0): 90.83%
Total main peak purity (%) ([7]; Day 5): 88.66%
Total main peak purity (%) ([7]; Day 10): 88.59%
Ketorolac (%) ([7]; Day 0): 0.18%
Ketorolac (%) ([7]; Day 5): 0.25%
Ketorolac (%) ([7]; Day 10): 0.32%

SMILES: CCOC(=O)OC(CC)OC(=O)C1CCn2c(C(=O)c3ccccc3)ccc21 (stereo not drawn) [N15]
Content of ketorolac % ([5]; 0 min): 1.727 ± 1.502%
Content of the compound % ([5]; 0 min): 99.560 ± 2.324%
Content of ketorolac % ([5]; 15 min): 23.933 ± 1.119%
Content of the compound % ([5]; 15 min): 76.800 ± 2.423%
Content of ketorolac % ([5]; 30 min): 50.917 ± 1.868%
Content of the compound % ([5]; 30 min): 46.680 ± 2.229%
Content of ketorolac % ([5]; 60 min): 83.957 ± 3.139%
Content of the compound % ([5]; 60 min): 12.760 ± 1.133%
Content of ketorolac % ([5]; 120 min): 96.910 ± 3.848%
Content of the compound % ([5]; 120 min): 0.893 ± 0.051%
Total main peak purity (%) ([7]; Day 0): 96.30%
Total main peak purity (%) ([7]; Day 5): 95.87%
Total main peak purity (%) ([7]; Day 10): 95.59%
Ketorolac (%) ([7]; Day 0): 0.08%
Ketorolac (%) ([7]; Day 5): 0.09%
Ketorolac (%) ([7]; Day 10): 0.14%
half-life at 97.6 µM [4]: 16.9 min

SMILES: CCC(OC(=O)OC(C)C)OC(=O)C1CCn2c(C(=O)c3ccccc3)ccc21 (stereo not drawn) [N16]
Content of ketorolac % ([5]; 0 min): 0%
Content of the compound % ([5]; 0 min): 100 ± 4.001%
Content of ketorolac % ([5]; 15 min): 9.847 ± 2.479%
Content of the compound % ([5]; 15 min): 82.710 ± 1.909%
Content of ketorolac % ([5]; 30 min): 28.653 ± 0.277%
Content of the compound % ([5]; 30 min): 65.987 ± 0.506%
Content of ketorolac % ([5]; 60 min): 56.793 ± 2.096%
Content of the compound % ([5]; 60 min): 35.437 ± 1.960%
Content of ketorolac % ([5]; 120 min): 70.443 ± 4.274%
Content of the compound % ([5]; 120 min): 7.047 ± 0.374%
Total main peak purity (%) ([7]; Day 0): 97.33%
Total main peak purity (%) ([7]; Day 5): 96.50%
Total main peak purity (%) ([7]; Day 10): 96.16%
Ketorolac (%) ([7]; Day 0): 0.05%
Ketorolac (%) ([7]; Day 5): 0.07%
Ketorolac (%) ([7]; Day 10): 0.07%
half-life at 97.6 µM [3]: 31.6 min

SMILES: CC(OC(=O)C1CCn2c(C(=O)c3ccccc3)ccc21)OC(=O)C1CCn2c(C(=O)c3ccccc3)ccc21 (stereo not drawn) [N22]
Metabolic by-products in human body [6]: Acetaldehyde
Toxicity [6]: relatively low toxicity of byproducts
metabolic rates (in words) ([4]; summary statement, metabolized in a human body): slow metabolic rates

SMILES: CCCCCCC(=O)OC(C)OC(=O)C1CCn2c(C(=O)c3ccccc3)ccc21 (stereo not drawn) [N27]
Metabolic by-products in human body [6]: Acetaldehyde and n-heptanoic acid
Toxicity [6]: low
Content of the compound % ([4]; human plasma, 1 min): 100%
Content of the compound % ([4]; human plasma, 15 min): 100%
Content of the compound % ([4]; human plasma, 30 min): 90.63 ± 1.81%
Content of the compound % ([4]; human plasma, 60 min): 63.89 ± 1.20%
Content of the compound % ([4]; human plasma, 120 min): 35.75 ± 1.46%
half-life at 97.6 µM [4]: 73.9 min

— patent publication US12649746B2, “Ketorolaco derivative, pharmaceutical composition and preparation method therefor and use thereof” (NANJING HERON PHARMACEUTICAL SCIENCE AND TECHNOLOGY CO., …, priority 2020, dated 2026)
